Assay results as given in paper PMC6271122, “Effects of Fructus Psoraleae Extract on the Intestinal Absorption Kinetics of Geniposide and Geniposidic Acid in Rat” (Molecules, 2014).
Like-named read-outs stand apart in the source and are kept apart here.

Key:
[1] = In situ intestinal perfusion of rat duodenum (UPLC of perfusate); format: in vivo; conditions: for Cumulative Absorption Rate (%) 1 h (mean ± SD) / Cumulative Absorption Rate (%) 3 h (mean ± SD): rat duodenum, n = 6
Protocol: All animal experimental procedures were in compliance with the National Institutes of Health Guide for Care and Use of Laboratory Animals. The in situ intestinal perfusion experiment was performed by using male Sprague-Dawley rats (240 ± 20 g) which obtained from Beijing Vital River Laboratory Animal Technology Co., Ltd. (SCXK 2012-0001, Beijing, China). Animals were fasted overnight (12 h) with free access to water before being allocated to different experimental groups at random. After the abdominal cavity was opened, an intestinal loop (length, 10 cm) was made by cannulation with silicone tube (i.d., 3 mm) at the duodenum which was selected 1 cm away from pylorus. The intestinal contents were removed by infusion of normal saline solution. The 25 mL perfusion solution was precisely measured and stored in the measuring cylinder. At the start of the experiment, the perfusion solutions perfused through the intestinal segment at a flow rate of 5 mL/min for 10 min by using a peristaltic pump (Petro Gas Ausrüstungen, Berlin, Germany). On reaching a steady state, changed the flow rate to 2.5 mL/min, and the intestinal perfusion samples (150 µL × 3) were collected at 30 min intervals for the duration of 3 h (0, 0.5, 1, 1.5, 2, 2.5, 3 h) with a pipette and put into shell tube. After each collection, the volumes (V1) of the perfusion solutions were recorded precisely and 450 µL blank K-R solution was added into the perfusion solution to keep the volume of the perfusion solution constant. After 3 h, the intestinal perfusion solution in peristaltic pump and the duodenum was exhausted, the volume of which was recorded as V2. All the samples were assayed by UPLC after preparation. Finally, the curves of time and the residual quantities (lnx) of GP and GPA in intestinal solution during the absorption in the duodenum for 3 h were obtained (Figure 2).The residual quantities of GP and GPA in the perfusion solution were calculated using the following equation: Xn = CnVn + 0.45 [drawing 1] , Xn is the residual quantities of GP or GPA in intestinal solution, Ci and Cn is the concentration of the GP or GPA, Vn is the volume of the intestinal perfusion solution (Vn = V1 + V2). Cumulative absorption rates were compared for 1 h and 3 h between the single and compatibility groups. The equation was as follows: 1 h/3 h cumulative absorption rate [drawing 2] .
Samples were prepared using a protein precipitation method at a volume ratio of 1:1 (v/v). The perfusion sample (150 µL) was mixed with CH3OH (150 µL), and then vortexed for 1 min. After 10 min for the precipitation, pure water (160 µL) was added to 40 µL of the above mixture. Then the sample was vortexed for 1 min and centr ifuged at 14,000 rpm for 10 min. The supernatant was directly used for UPLC analysis.
After sample preparation, 3 µL of the supernatant was injected into the UPLC system, and separated on a Waters BEH C18 column (2.1 × 50 mm, 1.7 µm). The column temperature was set at 25 °C. The mobile phase was consisted of water with 0.2% acetic acid (A) and acetonitrile (B) at a flow rate of 0.35 mL/min. The mobile phase operated in the following gradient for GP: 0–3 min: 15%–50% B, 3–3.5 min: 50%–90% B, 3.5–4 min: 90%–50% B, 4–5 min: 50%–15% B; GPA: 0–1 min: 5%–10% B, 1–2 min: 10%–20% B, 2–3 min: 20%–50% B, 3–4 min: 50%–10% B, 4–5 min: 10%–5% B. The detection wavelength was 254 nm.

[2] = Stability in blank intestinal perfusion solution; format: physicochemical; conditions: 3 h, 50 mg/L; for Stability in blank intestinal perfusion solution: 37 °C; for Stability, RSD (%): Blank intestinal perfusion solution, 37 °C water bath, concentrations at 0, 0.25, 0.5, 1, 2 and 3 h compared
Protocol: A total of 50 mg/L GP and GPA perfusion solution (dissolved in blank intestinal perfusion solution) was incubated in a water bath at 37 °C for 3 h. The concentrations at 0, 0.25, 0.5, 1, 2 and 3 h were determined and compared.
The blank intestinal perfusion solution was prepared by a process consistent with the in situ intestinal perfusion experiment (as follows) except for the vacancy of GP or other components in the K-R solution.

[3] = Stability in K-R solution; format: physicochemical; conditions: 24 h, room temperature; for Stability, RSD (%): K-R solution, concentrations at 0-24 h compared
Protocol: GP and GPA were stable in K-R solution at room temperature for 24 h. The concentrations at 0, 1, 2, 3, 5, 6, 8, 10 and 24 h were determined and compared.
All the components were dissolved in the K-R solution to imitate the physiological conditions of the intestinal tract. K-R nutrient solution included: NaCl 7.8 g, KCl 0.35 g, CaCl2 0.37 g, NaHCO3 1.37 g, NaH2PO4 0.02 g, MgCl2 0.02 g, glucose 2.22 g. They were dissolved in distilled water to 1000 mL.

[4] = Effect of physical adsorption of the peristaltic pump; format: physicochemical; conditions: for Physical Adsorption RSD (%): original vs 3 h concentration, 37 °C; for Concentration (mg/L) 3 h: perfusion solution after 3 h in water bath at 37 °C, compared with original concentration
Protocol: The perfusion solutions with known drug concentrations were incubated for 3 h in a water bath at 37 °C. The concentrations of GP and GPA in the resulting solution were determined and compared with the original concentrations.

[5] = system: β-D-glucosidase in rat liver homogenate; design: method as in PMID 7735197; conditions: cited from earlier work
NO production = system: NO production; design: method as in PMID 22181069; conditions: protection from renal injury; cited from earlier work
[6] = cited from earlier work
[7] = system: β-D-glucosidase of a human intestinal anaerobe, Eubacterium sp.A-44; conditions: cited from earlier work
[8] = Compatibility group (mixed with FPE)
[9] = Single group, 80 mg/L perfusion solution

Row | SMILES | Cumulative Absorption Rate (%) 1 h (mean ± SD) [1, 8] [%] | Cumulative Absorption Rate (%) 3 h (mean ± SD) [1, 8] [%] | Cumulative Absorption Rate (%) 1 h (mean ± SD) [1, 9] [%] | Cumulative Absorption Rate (%) 3 h (mean ± SD) [1, 9] [%] | Stability in blank intestinal perfusion solution [2] | Stability, RSD (%) [2] [%] | Stability, RSD (%) [3] [%] | Stability in K-R solution [3] | Physical Adsorption RSD (%) [4] [%] | Concentration (mg/L) 3 h [4] [mg/L] | Hydrolysis by β-D-glucosidase [5] | Effect on NO production (NO production) | Absorption in the duodenum by concentration ([6]; GP at 78 mg/L compared with other concentrations) | Absorption in the duodenum versus other parts of the intestinal tract [6] | Hydrolysis by β-D-glucosidase ([7]; human intestinal anaerobe Eubacterium sp.A-44) | Intestinal absorption at 216 mg/L ([1]; GPA 216 mg/L in intestinal perfusion solution) | Hydrolysis by β-D-glucosidase [7]
1 | COC(=O)C1=CO[C@@H](O[C@@H]2O[C@H](CO)[C@@H](O)[C@H](O)[C@H]2O)[C@@H]2C(CO)=CC[C@H]12 [GP, Geniposide] | 0.139 ± 0.104 | 0.120 ± 0.063 | 0.059 ± 0.018 | 0.081 ± 0.017 | stable | 3.27 | 1.32 | stable | 0.57 | 92.34 | cannot be hydrolyzed | inhibited NO production | best absorption | better than other parts of the intestinal tract | can be hydrolyzed | – | –
2 | O=C(O)C1=CO[C@@H](O[C@@H]2O[C@H](CO)[C@@H](O)[C@H](O)[C@H]2O)[C@@H]2C(CO)=CC[C@H]12 [GPA, geniposidic acid] | 0.075 ± 0.015 | 0.105 ± 0.028 | 0.063 ± 0.040 | 0.136 ± 0.046 | stable | 0.45 | 2.01 | stable | 1.32 | 114.68 | – | – | – | – | – | poor absorption | can hydolyse
